Assay results from BindingDB's records for doi:10.1021/jm00119a003 (Northeastern University, 1988).

Target: D(1A) dopamine receptor (Canis familiaris)
Experiment: Ability to inhibit the binding of [3H]-SCH- 23390 to canine striatal membrane

- Kd: 0.15 nM
SMILES: CN1CCc2cc(I)c(O)cc2C(c2ccc(N=[N+]=[N-])cc2)C1 (stereo unspecified) [5-(4-Azido-phenyl)-8-iodo-3-methyl-2,3,4,5-tetrahydro-1H-benzo[d]azepin-7-ol]
